# Data from the supplement of paper PMC10307832.
# How the values were obtained:
# Experiment in all cases: relative viability (nuclei count vs DMSO), 5 days (fraction); higher = more cells survive
# NCI-H2170 = system: NCI-H2170
# Summary of the method: (§1)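 Lung cancer cell lines were seeded in 1536-well plates and dosed by pin tool the next day, with either a single drug or a fixed anchor-drug dose combined with five library-drug doses (not always all listed) spaced in √10 steps. Five days later, one step fixed the cells and stained their nuclei (final 0.05% Triton X-100, 1% formaldehyde, 1 ug/ml Hoechst), and nuclei were counted on 4× images. Relative viability is the nuclei count in treated wells divided by the count in vehicle wells, and each value is the median of duplicate plates.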
# NCI-H2087 = system: NCI-H2087
# Summary of the method: as §1
# HCC-78 = system: HCC-78
# Summary of the method: as §1
# LOU-NH91 = system: LOU-NH91
# Summary of the method: as §1
# NCI-H460 = system: NCI-H460
# Summary of the method: as §1
# NCI-H1944 = system: NCI-H1944
# Summary of the method: as §1
# RERF-LC-KJ = system: RERF-LC-KJ
# Summary of the method: as §1
# NCI-H1651 = system: NCI-H1651
# Summary of the method: as §1
# NCI-H1395 = system: NCI-H1395
# Summary of the method: as §1
# CAL-12T = system: CAL-12T
# Summary of the method: as §1
# HCC-366 = system: HCC-366
# Summary of the method: as §1
# PC-3 [JPC-3] = system: PC-3 [JPC-3]
# Summary of the method: as §1
# ABC-1 = system: ABC-1
# Summary of the method: as §1
# NCI-H3122 = system: NCI-H3122
# Summary of the method: as §1
# LU99A = system: LU99A
# Summary of the method: as §1
# LC-2-ad = system: LC-2-ad
# Summary of the method: as §1
# NCI-H1755 = system: NCI-H1755
# Summary of the method: as §1
# ChaGo-K-1 = system: ChaGo-K-1
# Summary of the method: as §1
# NCI-H2405 = system: NCI-H2405
# Summary of the method: as §1
# NCI-H1793 = system: NCI-H1793
# Summary of the method: as §1
compound,measurement,setting,value
Cc1sc2c(c1C)C(c1ccc(Cl)cc1)=N[C@@H](CC(=O)OC(C)(C)C)c1nnc(C)n1-2 [JQ1] + NC(=O)Nc1cc(-c2cccc(F)c2)sc1C(=O)N[C@H]1CCCNC1 [AZD7762] (partner 0.2 µM),relative viability,NCI-H2170; first compound 0.04 µM,0.785
same,relative viability,NCI-H2170; first compound 0.1265 µM,0.564
same,relative viability,NCI-H2170; first compound 0.4 µM,0.739
same,relative viability,NCI-H2170; first compound 1.265 µM,0.431
same,relative viability,NCI-H2170; first compound 4 µM,0.379
same,relative viability,NCI-H2087; first compound 0.04 µM,1.34
same,relative viability,NCI-H2087; first compound 0.1265 µM,1.29
same,relative viability,NCI-H2087; first compound 0.4 µM,1.29
same,relative viability,NCI-H2087; first compound 1.265 µM,0.604
same,relative viability,NCI-H2087; first compound 4 µM,0.383
same,relative viability,HCC-78; first compound 0.04 µM,0.762
same,relative viability,HCC-78; first compound 0.1265 µM,0.574
same,relative viability,HCC-78; first compound 0.4 µM,0.559
same,relative viability,HCC-78; first compound 1.265 µM,0.421
same,relative viability,HCC-78; first compound 4 µM,0.208
same,relative viability,LOU-NH91; first compound 0.04 µM,0.759
same,relative viability,LOU-NH91; first compound 0.1265 µM,0.609
same,relative viability,LOU-NH91; first compound 0.4 µM,0.664
same,relative viability,LOU-NH91; first compound 1.265 µM,0.379
same,relative viability,LOU-NH91; first compound 4 µM,0.407
same,relative viability,NCI-H460; first compound 0.04 µM,0.594
same,relative viability,NCI-H460; first compound 0.1265 µM,0.327
same,relative viability,NCI-H460; first compound 0.4 µM,0.644
same,relative viability,NCI-H460; first compound 1.265 µM,0.443
same,relative viability,NCI-H460; first compound 4 µM,0.106
same,relative viability,NCI-H1944; first compound 0.04 µM,0.533
same,relative viability,NCI-H1944; first compound 0.1265 µM,0.412
same,relative viability,NCI-H1944; first compound 0.4 µM,0.434
same,relative viability,NCI-H1944; first compound 1.265 µM,0.365
same,relative viability,NCI-H1944; first compound 4 µM,0.313
same,relative viability,RERF-LC-KJ; first compound 0.04 µM,1.02
same,relative viability,RERF-LC-KJ; first compound 0.1265 µM,0.803
same,relative viability,RERF-LC-KJ; first compound 0.4 µM,0.976
same,relative viability,RERF-LC-KJ; first compound 1.265 µM,0.816
same,relative viability,RERF-LC-KJ; first compound 4 µM,0.358
same,relative viability,NCI-H1651; first compound 0.04 µM,0.538
same,relative viability,NCI-H1651; first compound 0.1265 µM,0.45
same,relative viability,NCI-H1651; first compound 0.4 µM,0.427
same,relative viability,NCI-H1651; first compound 1.265 µM,0.421
same,relative viability,NCI-H1651; first compound 4 µM,0.419
same,relative viability,NCI-H1395; first compound 0.04 µM,0.384
same,relative viability,NCI-H1395; first compound 0.1265 µM,0.379
same,relative viability,NCI-H1395; first compound 0.4 µM,0.372
same,relative viability,NCI-H1395; first compound 1.265 µM,0.348
same,relative viability,NCI-H1395; first compound 4 µM,0.361
same,relative viability,CAL-12T; first compound 0.04 µM,0.588
same,relative viability,CAL-12T; first compound 0.1265 µM,0.52
same,relative viability,CAL-12T; first compound 0.4 µM,0.466
same,relative viability,CAL-12T; first compound 1.265 µM,0.365
same,relative viability,CAL-12T; first compound 4 µM,0.317
same,relative viability,HCC-366; first compound 0.04 µM,0.305
same,relative viability,HCC-366; first compound 0.4 µM,0.23
same,relative viability,HCC-366; first compound 1.265 µM,0.146
same,relative viability,HCC-366; first compound 4 µM,0.0976
same,relative viability,PC-3 [JPC-3]; first compound 0.04 µM,0.709
same,relative viability,PC-3 [JPC-3]; first compound 0.1265 µM,0.849
same,relative viability,PC-3 [JPC-3]; first compound 0.4 µM,0.497
same,relative viability,PC-3 [JPC-3]; first compound 1.265 µM,0.527
same,relative viability,PC-3 [JPC-3]; first compound 4 µM,0.438
same,relative viability,ABC-1; first compound 0.04 µM,0.854
same,relative viability,ABC-1; first compound 0.1265 µM,0.803
same,relative viability,ABC-1; first compound 0.4 µM,0.95
same,relative viability,ABC-1; first compound 1.265 µM,0.596
same,relative viability,ABC-1; first compound 4 µM,0.529
same,relative viability,NCI-H3122; first compound 0.04 µM,1.04
same,relative viability,NCI-H3122; first compound 0.1265 µM,0.965
same,relative viability,NCI-H3122; first compound 0.4 µM,0.971
same,relative viability,NCI-H3122; first compound 1.265 µM,0.883
same,relative viability,NCI-H3122; first compound 4 µM,0.693
same,relative viability,LU99A; first compound 0.04 µM,0.443
same,relative viability,LU99A; first compound 0.4 µM,0.271
same,relative viability,LU99A; first compound 1.265 µM,0.165
same,relative viability,LU99A; first compound 4 µM,0.172
same,relative viability,LC-2-ad; first compound 0.04 µM,0.793
same,relative viability,LC-2-ad; first compound 0.1265 µM,0.42
same,relative viability,LC-2-ad; first compound 0.4 µM,0.374
same,relative viability,LC-2-ad; first compound 1.265 µM,0.249
same,relative viability,LC-2-ad; first compound 4 µM,0.204
same,relative viability,NCI-H1755; first compound 0.04 µM,0.533
same,relative viability,NCI-H1755; first compound 0.1265 µM,0.387
same,relative viability,NCI-H1755; first compound 0.4 µM,0.565
same,relative viability,NCI-H1755; first compound 1.265 µM,0.507
same,relative viability,NCI-H1755; first compound 4 µM,0.433
same,relative viability,ChaGo-K-1; first compound 0.04 µM,0.875
same,relative viability,ChaGo-K-1; first compound 0.1265 µM,0.89
same,relative viability,ChaGo-K-1; first compound 0.4 µM,0.899
same,relative viability,ChaGo-K-1; first compound 1.265 µM,0.821
same,relative viability,ChaGo-K-1; first compound 4 µM,0.536
same,relative viability,NCI-H2405; first compound 0.04 µM,0.712
same,relative viability,NCI-H2405; first compound 0.4 µM,0.646
same,relative viability,NCI-H2405; first compound 1.265 µM,0.586
same,relative viability,NCI-H2405; first compound 4 µM,0.365
same,relative viability,NCI-H1793; first compound 0.04 µM,0.482
same,relative viability,NCI-H1793; first compound 0.1265 µM,0.395
same,relative viability,NCI-H1793; first compound 0.4 µM,0.824
same,relative viability,NCI-H1793; first compound 1.265 µM,0.556
same,relative viability,NCI-H1793; first compound 4 µM,0.459
